Source: article PMC11288129, “Diversely evolved xibalbin variants from remipede venom inhibit potassium channels and activate PKA-II and Erk1/2 signaling” (BMC Biology, 2024)
“Also recorded” adds a separate entry of the source. Positions of bridges follow the written chain, without caps; N, C: chain ends. No end group written: not given here.

Tested on: PKA-II (phospho-RIIα/β) in rat DRG neurons
Test: High-content imaging of PKA-II activity (pRII) in DRG sensory neurons
Type: cell-based
Settings: for PKA-II activation: 5 and 30 min, 0.005 to 0.8 µg/µL; for increase in phospho-PKA-II intensity: 5 min; for pRII response by neuron size: xibalbins 0.8 µg/µL
Description: To gauge sensory neuron activity in response to various activating stimuli, including electrical activity, phosphorylation state detection of protein kinase A type II (PKA-II) and MAP kinase Erk1/2 can act as surrogate measurements. Consequently, we tested for increased phosphorylation states in a concentration-dependent manner following exposure to xibalbins. Dissociated DRG neurons were cultured overnight and then exposed to increasing concentrations of the corresponding xibalbins for 5 min and 30 min, respectively. As a positive control, forskolin (Fsk) was also used to induce cAMP synthesis. The activity of PKA-II was monitored by antibodies directed against the phosphorylation site of the inhibitory regulatory subunits RIIα/β, which is exclusively accessible when the catalytic kinase domain is released during kinase activation. For measuring Erk1/2 activity, phospho-sites on Erk1/2 (T202/Y204) were monitored through immunofluorescence, as these sites are phosphorylated during activation. Cellular images were captured using HCI microscopy (Fig. 8A), and the average intensity of each phospho-antibody was quantified (Fig. 8B).
Fig. 8 A Representative images of rat DRG neurons stimulated with PBS (Ctrl) and xib1b (0.8 µg/µL). Cells were stained for UCHL1, pRII, pERK1/2, and Hoechst followed by fixation and staining with standard immunocytochemistry protocols. Green-encircled neurons indicate automatically selected objects. Scale bar: 100 µm. B Mean intensities of UCHL1, pRII, and pERK1/2. The same UCHL1 intensities were observed among tested groups. Forskolin (Fsk), an activator of adenylyl cyclase, was used as a positive control. Fsk at 6 µM concentration induced an increase in pRII and pERK1/2 intensities at 5 and 30 min. Number of analyzed cells per replica: 750 ± 200. Eight independent replicas. C–F Concentration responses of xibalbin toxins (0.005 to 0.8 µg/µL) and mean intensities of pRII and pERK1/2 at 5 min and 30 min. G–H Size versus pRII and pErk1/2 intensities of cells treated with 0.8 µg/µL of xib1 and xib13. Small-sized cells were responding to xibalbins. Statistical significance was assessed using one-way ANOVA with Dunnett’s post hoc test. Data represent mean ± S.E.M (standard error of the mean), n = 4, see “Methods” for details and Additional File 6: Table S2 for individual data values
Male Sprague Dawley rats (250–400 g, 8–16 weeks old) were obtained from Envigo. Rats were kept in 12 h of light/darkness cycles. All experiments were performed in accordance with the German animal welfare law with permission of the District Government for Nature and Environment, NRW (84–02.05.20.13.045, 4.18.003). Rats were scarified by slow inhalation of CO2 which was followed by decapitation. DRGs were extracted from rats, deheated, pooled, and incubated in Neurobasal A/B27 medium (Invitrogen, #12349–015) supplemented with B-27 (Invitrogen #17504), L-glutamine 1:400, L-glutamate 1:270.3, and penicillin/streptomycin 1:100 containing 0.2 U/mL collagenase P (collagenase P, Roche, #1213857) and incubated for 1 h at 37 °C, 5% CO2. DRGs were dissociated with pasteur pipettes and axon stumps were separated by BSA (Sigma-Aldrich, # A2153-100G) gradient centrifugation (14% BSA, 120 g, 8 min). Cells were resuspended in NBA medium, plated in 96-well imaging plate (Greiner BioOne Sensoplate, Black, #655896) precoated with poly-L-ornithine hydrochloride (0.1 mg/ml Sigma, #P2533)/laminin (5 µg/ml Invitrogen, #23017–015), and incubated overnight at 37 °C, 5% CO2.
DRGs were stimulated after overnight incubation. Compounds were prepared as tenfold concentrated stock solutions, diluted in PBS (PAA, cat# H15-002), in v-bottom plates; 50 µL media from culture wells were mixed with the […] stock solutions, and 50 µL added back to the respective wells. Stimulation was performed with automated multichannel pipette and cells were kept in heated block during the stimulation. […]

## KRSCIRRFGRCDHRPNDCCYNSSCRCNLWGSNCRCQRMGLFQKWGK (disulfide 4-19, 11-24, 18-35, 26-33) [xib13]
  PKA-II activation: increase PKA-II and Erk1/2 sensitization signaling; also recorded: increased PKA-II and pErk1/2 activity
  pRII response by neuron size: increased phosphorylation signals in both small-sized and large-sized sensory neurons
0.4 µg/µL (74 µM), q = 3.29
  increase in phospho-PKA-II intensity: up to 1.21 fold
0.8 µg/µL (148 µM), q = 4.17
  increase in phospho-PKA-II intensity: up to 1.21 fold
30 min
  change in phospho-PKA-II intensity: No change

## RLFCIRHHKYCGHRPKRCCSGLFCRCNTFGTNCRCQSKGALGKLI (disulfide 4-19, 11-24, 18-35, 26-33) [xib1]
  PKA-II activation: increase PKA-II and Erk1/2 sensitization signaling; also recorded: increased PKA-II and pErk1/2 activity
  pRII response by neuron size: increased phosphorylation signals in both small-sized and large-sized sensory neurons
